Data as given in EP4778929A1, “NOVEL TYPE I TOPOISOMERASE INHIBITOR, AND PREPARATION METHOD THEREFOR AND USE THEREOF” (priority 2023, dated 2025).
Several values for one entry are separate records, joined by “and”; a condition that tells them apart may be missing. Equal values may be shown once. Read-outs that look alike come from different tables or passages of the source.

Experiments:
HCT116 cells = experiment: Inhibition of cell proliferation by CTG (CellTiter-Glo) luminescence assay; assay type: cell-based; conditions: Homo sapiens, read-out: HCT116, IC50
Procedure, shortened: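 Nine-point 1:3 dilutions applied to HCT116 cells (2 000/well, McCoy's 5a + 10 % FBS) for 72 h at 37 °C, final DMSO 0.25 %. Viability read by CellTiter-Glo luminescence; % inhibition versus DMSO controls fitted to four-parameter logistic for IC50.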

topoisomerase I (Topo I) = target: T1, topoisomerase I (Topo I) (Homo sapiens, UniProt P11387); experiment: Topo I enzyme-inhibitory activity by agarose-gel electrophoresis (plasmid relaxation); assay type: biochemical
T1 sequence (P11387 1-765): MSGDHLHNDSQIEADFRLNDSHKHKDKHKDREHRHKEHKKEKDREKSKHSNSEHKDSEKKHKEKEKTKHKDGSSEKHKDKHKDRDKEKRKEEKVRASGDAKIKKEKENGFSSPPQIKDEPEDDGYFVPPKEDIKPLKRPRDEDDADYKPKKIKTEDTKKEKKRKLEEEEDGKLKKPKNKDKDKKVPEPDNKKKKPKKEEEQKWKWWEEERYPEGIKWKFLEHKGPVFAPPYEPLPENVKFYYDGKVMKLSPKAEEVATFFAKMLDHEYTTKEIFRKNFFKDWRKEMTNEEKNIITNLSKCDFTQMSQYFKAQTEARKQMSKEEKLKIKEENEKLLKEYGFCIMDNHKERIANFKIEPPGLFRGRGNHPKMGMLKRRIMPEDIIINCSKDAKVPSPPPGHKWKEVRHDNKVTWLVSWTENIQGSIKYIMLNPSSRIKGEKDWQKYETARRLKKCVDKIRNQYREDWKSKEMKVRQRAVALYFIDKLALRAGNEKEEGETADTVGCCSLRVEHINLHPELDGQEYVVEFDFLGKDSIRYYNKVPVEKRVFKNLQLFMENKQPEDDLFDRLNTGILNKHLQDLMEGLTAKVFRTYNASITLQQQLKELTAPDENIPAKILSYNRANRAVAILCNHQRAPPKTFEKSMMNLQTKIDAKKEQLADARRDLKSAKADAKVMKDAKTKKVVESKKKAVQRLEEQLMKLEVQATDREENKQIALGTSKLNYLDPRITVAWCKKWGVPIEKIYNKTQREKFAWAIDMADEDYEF
Text: Test Example 1. Determination of Topo I Enzyme-Inhibitory Activity by Agarose-Gel Electrophoresis
Principle: Type-I topoisomerase (Topo I) relaxes positive and negative supercoils by introducing transient single-strand breaks and forming reversible cleavage complexes (Topo I-DNA covalent complexes). Gel electrophoresis can resolve DNA species of identical molecular weight but different topology: supercoiled plasmid migrates fastest, whereas the nicked, relaxed form moves more slowly. Quantifying the decrease in supercoiled DNA therefore provides a direct measure of Topo I activity.
Experimental Procedure: A 1× reaction buffer was prepared (20 mM Tris-HCl pH 7.5, 200 mM NaCl, 0.25 mM EDTA, 5 % (v/v) glycerol, 0.5 µg pNO1 plasmid substrate). Test compounds (5 % DMSO final) were added to the buffer, followed by Topo I enzyme (0.75 U per reaction). After gentle mixing, reactions were incubated at 37 °C for 30 min. Positive (enzyme + vehicle) and negative (no enzyme) controls were included in parallel. Reactions were terminated by adding STEB buffer and chloroform/iso-amyl alcohol (24:1, v/v), vortexed and centrifuged for 2 min. The aqueous (upper) phase was loaded onto a 1 % (w/v) agarose gel, electrophoresed for 1-2 h, stained with GelRed, and imaged under UV trans-illumination.
Data Analysis: Band intensities of supercoiled DNA were quantified with image-analysis software. Relaxation activity (%) was calculated as (Max-Sample)/ (Max-Min)*100%, where Max = intensity of the no-enzyme negative control, Min = intensity of the vehicle-only positive control, and Sample = intensity of the compound-treated lane. Dose-response data (compound concentration, X; relaxation activity %, Y) were fitted in Excel or GraphPad Prism 5.0 using the four-parameter logistic equation: Y=Bottom + (Top-Bottom)/(1+(IC50/X)[…]) to derive the IC50 value for each compound.
Table 1. Compound-mediated inhibition of topoisomerase I (Topo I) enzymatic activity

[1] = read-out: inhibition of topoisomerase I (Topo I) enzymatic activity, IC50; 0.75 U Topo I, pNO1 plasmid, 37 °C, 30 min; compounds listed by group (Group A / Group B)
[2] = HCT-116, 72 h incubation, CellTiter-Glo
[3] = 0.75 U Topo I, pNO1 plasmid, 37 °C, 30 min; compounds listed by group (Group A / Group B); read-out: inhibition of topoisomerase I (Topo I) enzymatic activity, IC50

SMILES	IC50 (HCT116 cells; HCT-116, 72 h) [nM]	IC50 (topoisomerase I (Topo I); [1])	IC50 (HCT116 cells; [2]) [nM]	IC50 (topoisomerase I (Topo I); [3]) [nM]
CC[C@@]1(O)C(=O)OCc2c1cc1n(c2=O)Cc2c-1c(=O)c1cc(F)ccc1n2-c1ccc(N)cc1 [Example 72, (S)-11-(4-aminophenyl)-4-ethyl-8-fluoro-4-hydroxy-1H-pyrano[3,4:6,7]indolizino[2,1-b]quinoline-3,6,14(4H,11H,12H)-trione]	< 20	200 to 500 nM		
CC[C@@]1(O)C(=O)OCc2c1cc1n(c2=O)Cc2c-1c(=O)c1cc(F)ccc1n2-c1cccc(OC)c1 [Example 73, (S)-4-ethyl-8-fluoro-4-hydroxy-11-(3-methoxyphenyl)-1,12-dihydro-14H-pyrano[3,4:6,7]indolizino[2,1-b]quinoline-3,6,14(4H,11H)-trione]	< 20	200 to 500 nM		
CC[C@@]1(O)C(=O)OCc2c1cc1n(c2=O)Cc2c-1c(=O)c1cc(F)cc(CNC3CC3)c1n2C [Example 88, (S)-10-((cyclopropylamino)methyl)-4-ethyl-8-fluoro-4-hydroxy-11-methyl-1,12-dihydro-14H-pyrano[3,4:6,7]indolizino[2,1-b] quinoline-3,6,14(4H,11H)-trione]	< 20	200 to 500 nM		
CC[C@@]1(O)C(=O)OCc2c1cc1n(c2=O)Cc2c-1c(=O)c1cc(F)cc(CN(C)C3CC3)c1n2C [Example 89, (S)-10-((cyclopropyl(methyl)amino)methyl)-4-ethyl-8-fluoro-4-hydroxy-11-methyl-1,12-dihydro-14H-pyrano[3,4:6,7]indolizino[2,1-b]quinoline-3,6,14(4H,11H)-trione]	< 20	200 to 500 nM		
CC[C@@]1(O)C(=O)OCc2c1cc1n(c2=O)Cc2c-1c(=O)c1cc(F)ccc1n2CCN(C1CC1)C1CC(F)(F)C1 [Example 101, (S)-11-(2-(cyclopropyl(3,3-difluorocyclobutyl)amino)ethyl)-4-ethyl-8-fluoro-4-hydroxy-1,12-dihydro-14H-pyrano[3,4:6,7] indolizino[2,1-b]quinoline-3,6,14(4H,11H)-trione]	< 20	200 to 500 nM and < 200 nM		
CC[C@@]1(O)C(=O)OCc2c1cc1n(c2=O)Cc2c-1c(=O)c1cc(F)ccc1n2CCNC1CCC1 [Example 106]	< 20	200 to 500 nM		
CC[C@@]1(O)C(=O)OCc2c1cc1n(c2=O)Cc2c-1c(=O)c1cc(F)ccc1n2CCN(C1CCC1)C1CCC1 [Example 119]	< 20	200 to 500 nM		
CC[C@@]1(O)C(=O)OCc2c1cc1n(c2=O)Cc2c-1c(=O)c1cc(F)ccc1n2CCN(C1CCCC1)C1CC1 [Example 137]	< 20	200 to 500 nM		
CC[C@@]1(O)C(=O)OCc2c1cc1n(c2=O)Cc2c-1c(=O)c1cc(F)ccc1n2CCNC1CCCC1(C)C (some centres unmarked) [Example 138]	< 20	200 to 500 nM		
CC[C@@]1(O)C(=O)OCc2c1cc1n(c2=O)Cc2c-1c(=O)c1cc(F)ccc1n2CCN(C)C1CCCC1(C)C (some centres unmarked) [Example 139]	< 20	200 to 500 nM		
CC[C@@]1(O)C(=O)OCc2c1cc1n(c2=O)Cc2c-1c(=O)c1cc(F)ccc1n2CCN(C1CC1)C1CC1 [Example 140]	< 20	< 200 nM		
CC[C@@]1(O)C(=O)OCc2c1cc1n(c2=O)Cc2c-1c(=O)c1cc(F)ccc1n2CCN(C1CCC1)C1CC1 [Example 141]	< 20	200 to 500 nM		
CC[C@@]1(O)C(=O)OCc2c1cc1n(c2=O)Cc2c-1c(=O)c1cc(F)c(C)cc1n2CCNC1CCC1 [Example 159]	< 20	200 to 500 nM		
CC[C@@]1(O)C(=O)OCc2c1cc1n(c2=O)Cc2c-1c(=O)c1cc(F)c(C)cc1n2CCNC1CC(F)(F)C1 [Example 160]			< 20	200 to 500
CC[C@@]1(O)C(=O)OCc2c1cc1n(c2=O)Cc2c-1c(=O)c1cc(F)c(C)cc1n2CCNC1CC1 [Example 161]	< 20	200 to 500 nM		
CC[C@@]1(O)C(=O)OCc2c1cc1n(c2=O)Cc2c-1c(=O)c1cc(F)c(C)cc1n2CCNC1CCCC1 [Example 163]	< 20	200 to 500 nM		
CC[C@@]1(O)C(=O)OCc2c1cc1n(c2=O)Cc2c-1c(=O)c1cc(F)c(C)cc1n2CCN(C)C1CC1 [Example 164]	< 20	200 to 500 nM		
CC[C@@]1(O)C(=O)OCc2c1cc1n(c2=O)Cc2c-1c(=O)c1cc(F)c(C)cc1n2CCN(C1CC1)C1CC(F)(F)C1 [Example 165]	< 20	200 to 500 nM		
CC[C@@]1(O)C(=O)OCc2c1cc1n(c2=O)Cc2c-1c(=O)c1cc(F)c(C)cc1n2CCN(C)C1CCCC1 [Example 166]	< 20	200 to 500 nM		
CC[C@@]1(O)C(=O)OCc2c1cc1n(c2=O)Cc2c-1c(=O)c1cc(F)c(C)cc1n2CCN(C1CCCC1)C1CC1 [Example 167]	< 20	200 to 500 nM		
CC[C@@]1(O)C(=O)OCc2c1cc1n(c2=O)Cc2c-1c(=O)c1cc(F)cc(C)c1n2CCNC1CCCC1 [Example 168]	< 20	200 to 500 nM		
CC[C@@]1(O)C(=O)OCc2c1cc1n(c2=O)Cc2c-1c(=O)c1cc(F)cc(C)c1n2CCNC1CC1 [Example 169]	< 20	200 to 500 nM		
CC[C@@]1(O)C(=O)OCc2c1cc1n(c2=O)Cc2c-1c(=O)c1cc(F)cc(C)c1n2CCN(C1CCCC1)C1CC1 [Example 171]	< 20	200 to 500 nM		
CC[C@@]1(O)C(=O)OCc2c1cc1n(c2=O)Cc2c-1c(=O)c1cc(F)cc(C)c1n2CCN(C)C1CCCC1 [Example 172]	< 20	200 to 500 nM		
CC[C@@]1(O)C(=O)OCc2c1cc1n(c2=O)Cc2c-1c(=O)c1cc(F)ccc1n2CCN1CC2(CC2)C1 [Example 182, (S)-11-(2-(5-azaspiro[2.3]hexan-5-yl)ethyl)-4-ethyl-8-fluoro-4-hydroxy-1,12-dihydro-14H-pyrano[3',4':6,7]indolizino[2,1-b]quinoline-3,6,14(4H,11H)-trione]			< 20	200 to 500
CC[C@@]1(O)C(=O)OCc2c1cc1n(c2=O)Cc2c-1c(=O)c1cc(F)ccc1n2CCN1CCCC1(C)C [Example 184]	< 20	< 200 nM		
CC[C@@]1(O)C(=O)OCc2c1cc1n(c2=O)Cc2c-1c(=O)c1cc(F)ccc1n2CCN1CCC(C)(C)CC1 [Example 185]	< 20	200 to 500 nM		
CC[C@@]1(O)C(=O)OCc2c1cc1n(c2=O)Cc2c-1c(=O)c1cc(F)ccc1n2CCN1CC(F)(F)C1 [Example 186]			< 20	200 to 500
